Data: ChEMBL document CHEMBL1150678, “Bioactive sterols from the starfish Certonardoa semiregularis” (2003)
Values after ≈ are worked out from the molar mass of the structure shown.

Experiments:
Streptococcus pyogenes [1] = assay: Antimicrobial activity against Streptococcus pyogenes 308A isolate after 18 hrs; assay type: functional
Staphylococcus aureus [2] = assay: Antimicrobial activity against Staphylococcus aureus 503 isolate after 18 hrs; assay type: functional
A549 = assay: Cytotoxicity against human A549 cells; assay type: functional; conditions: read-out: ED50 (the source's name)
XF498 = assay: Cytotoxicity against human XF498 cells; assay type: functional; conditions: read-out: ED50 (the source's name)
Escherichia coli [3] = assay: Antimicrobial activity against Escherichia coli TEM isolate after 18 hrs; assay type: functional
Streptococcus pyogenes [4] = assay: Antimicrobial activity against Streptococcus pyogenes 77A isolate after 18 hrs; assay type: functional
Enterobacter cloacae [5] = assay: Antimicrobial activity against Enterobacter cloacae P99 after 18 hrs; assay type: functional
Pseudomonas aeruginosa [6] = assay: Antimicrobial activity against Pseudomonas aeruginosa 1771M isolate after 18 hrs; assay type: functional
Staphylococcus aureus [7] = assay: Antimicrobial activity against Staphylococcus aureus 285 isolate after 18 hrs; assay type: functional
HCT-15 = assay: Cytotoxicity against human HCT15 cells; assay type: functional; conditions: read-out: ED50 (the source's name)
Staphylococcus aureus [8] = assay: Antimicrobial activity against Staphylococcus aureus SG511 isolate after 18 hrs; assay type: functional
Escherichia coli [9] = assay: Antimicrobial activity against Escherichia coli DC0 isolate after 18 hrs; assay type: functional
SK-MEL-2 = assay: Cytotoxicity against human SK-MEL-2 cells; assay type: functional; conditions: read-out: ED50 (the source's name)
Pseudomonas aeruginosa [10] = assay: Antimicrobial activity against Pseudomonas aeruginosa 1592E isolate after 18 hrs; assay type: functional
Escherichia coli [11] = assay: Antimicrobial activity against Escherichia coli 078 isolate after 18 hrs; assay type: functional
Pseudomonas aeruginosa [12] = assay: Antimicrobial activity against Pseudomonas aeruginosa 9027 isolate after 18 hrs; assay type: functional
Klebsiella aerogenes = assay: Antimicrobial activity against Klebsiella aerogenes 1522E after 18 hrs; assay type: functional
Escherichia coli [13] = assay: Antimicrobial activity against Escherichia coli DC2 isolate after 18 hrs; assay type: functional
Salmonella typhimurium = assay: Antimicrobial activity against Salmonella Typhimurium after 18 hrs; assay type: functional, Salmonella enterica subsp. enterica serovar Typhimurium; conditions: Salmonella enterica
Pseudomonas aeruginosa [14] = assay: Antimicrobial activity against Pseudomonas aeruginosa 1771 isolate after 18 hrs; assay type: functional
Enterobacter cloacae [15] = assay: Antimicrobial activity against Enterobacter cloacae 1321E after 18 hrs; assay type: functional
Klebsiella oxytoca = assay: Antimicrobial activity against Klebsiella oxytoca 1082E after 18 hrs; assay type: functional
Enterococcus faecium = assay: Antimicrobial activity against Streptococcus faecium MD8b isolate after 18 hrs; assay type: functional
Escherichia coli [16] = assay: Antimicrobial activity against Escherichia coli 1507E isolate after 18 hrs; assay type: functional
SK-OV-3 = assay: Cytotoxicity against human SKOV3 cells; assay type: functional; conditions: read-out: ED50 (the source's name)

## C/C(=C\[C@@H](C)[C@H]1C[C@@H](O)[C@@H]2[C@]1(C)CC[C@@H]1[C@@]3(C)CC[C@H](O)C[C@@H]3[C@@H](O)C[C@]12O)[C@H](C)[C@@H](C)CO [CERTONARDOSTEROL I]
Streptococcus pyogenes [1]
  MIC: 25 µg/mL (≈ 52.2 µM)
Staphylococcus aureus [2]
  MIC: > 25 µg/mL
A549
  EC50: 5.1 µg/mL (≈ 10.7 µM)
XF498
  EC50: 7.3 µg/mL (≈ 15.2 µM)
Escherichia coli [3]
  MIC: > 25 µg/mL
Streptococcus pyogenes [4]
  MIC: 25 µg/mL (≈ 52.2 µM)
Enterobacter cloacae [5]
  MIC: > 25 µg/mL
Pseudomonas aeruginosa [6]
  MIC: 25 µg/mL (≈ 52.2 µM)
Staphylococcus aureus [7]
  MIC: > 25 µg/mL
HCT-15
  EC50: 6.3 µg/mL (≈ 13.2 µM)
Staphylococcus aureus [8]
  MIC: > 25 µg/mL
Escherichia coli [9]
  MIC: > 25 µg/mL
SK-MEL-2
  EC50: 5.3 µg/mL (≈ 11.1 µM)
Pseudomonas aeruginosa [10]
  MIC: > 25 µg/mL
Escherichia coli [11]
  MIC: > 25 µg/mL
Pseudomonas aeruginosa [12]
  MIC: > 25 µg/mL
Klebsiella aerogenes
  MIC: > 25 µg/mL
Escherichia coli [13]
  MIC: > 25 µg/mL
Salmonella typhimurium
  MIC: > 25 µg/mL
Pseudomonas aeruginosa [14]
  MIC: 12.5 µg/mL (≈ 26.1 µM)
Enterobacter cloacae [15]
  MIC: > 25 µg/mL
Klebsiella oxytoca
  MIC: > 25 µg/mL
Enterococcus faecium
  MIC: > 25 µg/mL
Escherichia coli [16]
  MIC: > 25 µg/mL
SK-OV-3
  EC50: 8.8 µg/mL (≈ 18.4 µM)

## C/C(=C\[C@@H](C)[C@H]1C[C@@H](O)[C@H]2[C@@H]3C[C@H](O)[C@H]4C[C@@H](O)CC[C@]4(C)[C@H]3CC[C@@]21C)[C@H](C)[C@@H](C)CO [CERTONARDOSTEROL J]
Streptococcus pyogenes [1]
  MIC: 25 µg/mL (≈ 54 µM)
Staphylococcus aureus [2]
  MIC: > 25 µg/mL
A549
  EC50: 8 µg/mL (≈ 17.3 µM)
XF498
  EC50: 11.4 µg/mL (≈ 24.6 µM)
Escherichia coli [3]
  MIC: > 25 µg/mL
Streptococcus pyogenes [4]
  MIC: 25 µg/mL (≈ 54 µM)
Enterobacter cloacae [5]
  MIC: > 25 µg/mL
Pseudomonas aeruginosa [6]
  MIC: 25 µg/mL (≈ 54 µM)
Staphylococcus aureus [7]
  MIC: > 25 µg/mL
HCT-15
  EC50: 12.5 µg/mL (≈ 27 µM)
Staphylococcus aureus [8]
  MIC: > 25 µg/mL
Escherichia coli [9]
  MIC: > 25 µg/mL
SK-MEL-2
  EC50: 7.1 µg/mL (≈ 15.3 µM)
Pseudomonas aeruginosa [10]
  MIC: > 25 µg/mL
Escherichia coli [11]
  MIC: > 25 µg/mL
Pseudomonas aeruginosa [12]
  MIC: > 25 µg/mL
Klebsiella aerogenes
  MIC: > 25 µg/mL
Escherichia coli [13]
  MIC: > 25 µg/mL
Salmonella typhimurium
  MIC: > 25 µg/mL
Pseudomonas aeruginosa [14]
  MIC: 12.5 µg/mL (≈ 27 µM)
Enterobacter cloacae [15]
  MIC: > 25 µg/mL
Klebsiella oxytoca
  MIC: > 25 µg/mL
Enterococcus faecium
  MIC: > 25 µg/mL
Escherichia coli [16]
  MIC: > 25 µg/mL
SK-OV-3
  EC50: 10.3 µg/mL (≈ 22.3 µM)
